Read-outs that look alike come from different tables or passages of the source. Marks after values point to notes of the source that are not given here. Each block holds one molecule with its values, some of them ahead of it.
What was measured:
[1] = tested on: rats; experiment: 28-day repeated dose study in rats with mass spectrometry-based plasma metabolite profiling (GC-MS, LC-MS, SPE-LC-MS); treatment ratios versus control; conditions: plasma; for Glutamate, treatment ratio versus control / Lysophosphatidylcholine (C20:4), treatment ratio versus control / Malate, treatment ratio versus control: Table 1d diuretic effect
[2] = tested on: rats; conditions: rat, in vivo
[3] = male rats, day 28, high dose, Table 8a direct tubular effect
[4] = male rats, day 28, high dose, Table 8b direct tubular effect
[5] = male rats, day 7, high dose, Table 1c diuretic effect
[6] = male rats, day 14, high dose, Table 1c diuretic effect
[7] = male rats, day 28, high dose, Table 1c diuretic effect
[8] = female rats, day 28, high dose, Table 1a diuretic effect
[9] = female rats, day 28, high dose, Table 1b diuretic effect

- Glycerol-3-phosphate, polar fraction, treatment ratio versus control [1, 3]: 1.64 *
- Isoleucine, treatment ratio versus control [1, 3]: 1.2 *
- TAG No 02, treatment ratio versus control [1, 3]: 1.91 *
- Threonine, treatment ratio versus control [1, 3]: 1.03
- 14-Methylhexadecanoic acid, treatment ratio versus control [1, 4]: 0.81
- 16-Methylheptadecanoic acid, treatment ratio versus control [1, 4]: 0.76
- 18-Hydroxy-11-deoxycorticosterone, treatment ratio versus control [1, 4]: 0.23 *
- Citrate, treatment ratio versus control [1, 4]: 0.82 *
- DAG (C18:1, C18:2), treatment ratio versus control [1, 4]: 0.43 *
- Elaidic acid (C18:trans[9]1), treatment ratio versus control [1, 4]: 0.84
- Isopalmitic acid (C16:0), treatment ratio versus control [1, 4]: 0.62
- Ketoleucine, treatment ratio versus control [1, 4]: 0.75 *
- Linolenic acid (C18:cis[9,12,15]3), treatment ratio versus control [1, 4]: 0.56 *
- Lysophosphatidylcholine (C18:0), treatment ratio versus control [1, 4]: 0.99 *
- Oleic acid (C18:cis[9]1), treatment ratio versus control [1, 4]: 0.75 *
- Palmitoleic acid (C16:cis[9]1), treatment ratio versus control [1, 4]: 0.76 *
- TAG (C16:0, C16:1), treatment ratio versus control [1, 4]: 0.4 *
- trans-4-Hydroxyproline, treatment ratio versus control [1, 4]: 0.87 *
- Leucine, treatment ratio versus control [2]: 1.23 *
- Lysophosphatidylethanolamine (C22:0), treatment ratio versus control [2]: 1.26 *
- Ornithine, treatment ratio versus control [2]: 1.24 *
Compound: Oc1ccc(O)cc1 [Hydroquinone]

- Ceramide (d18:1, C24:0), treatment ratio versus control [1, 5]: 0.84^
- Choline plasmalogen No 02, treatment ratio versus control [1, 5]: 1.38 *
- Glutamate, treatment ratio versus control ([1]; male rats, day 7, high dose): 0.74 *
- Lysophosphatidylcholine (C20:4), treatment ratio versus control ([1]; male rats, day 7, high dose): 0.8 *
- Ceramide (d18:1, C24:0), treatment ratio versus control [1, 6]: 1.35 *
- Choline plasmalogen No 03, treatment ratio versus control [1, 6]: 1.1
- Threonine, treatment ratio versus control [1, 6]: 1.53 *
- Glutamate, treatment ratio versus control ([1]; male rats, day 14, high dose): 0.94 *
- Lysophosphatidylcholine (C20:4), treatment ratio versus control ([1]; male rats, day 14, high dose): 0.86 *
- Ceramide (d18:1, C24:1), treatment ratio versus control [1, 7]: 1.52^
- Choline plasmalogen No 03, treatment ratio versus control [1, 7]: 1.1 *
- Sphingomyelin (d18:2, C16:0), treatment ratio versus control [1, 7]: 1.9 *
- Glutamate, treatment ratio versus control ([1]; male rats, day 28, high dose): 0.87 *
- Lysophosphatidylcholine (C20:4), treatment ratio versus control ([1]; male rats, day 28, high dose): 0.8 *
- Ceramide (d18:1, C24:0), treatment ratio versus control [2]: 1.33 *
- Choline plasmalogen No 03, treatment ratio versus control [2]: 1.08 *
Compound: Cn1cnc2c1c(=O)[nH]c(=O)n2C [Theobromine]

- Pantothenic acid, treatment ratio versus control [1, 8]: 1.72 *
- Proline, treatment ratio versus control [1, 8]: 1.57
- Threonic acid, treatment ratio versus control [1, 8]: 1.14
- trans-4-Hydroxyproline, treatment ratio versus control [1, 8]: 1.91 *
- 18-Hydroxy-11-deoxycorticosterone, treatment ratio versus control [1, 9]: 0.5 *
- Creatinine, treatment ratio versus control [1, 9]: 0.8 *
- Hippuric acid, treatment ratio versus control [1, 9]: 0.28 *
- Ceramide (d18:1, C24:0), treatment ratio versus control [1, 5]: 0.92^
- Ceramide (d18:1, C24:1), treatment ratio versus control [1, 5]: 0.75^
- Glutamate, treatment ratio versus control ([1]; male rats, day 7, high dose): 0.64 *
- Lysophosphatidylcholine (C20:4), treatment ratio versus control ([1]; male rats, day 7, high dose): 0.71 *
- Malate, treatment ratio versus control ([1]; male rats, day 7, high dose): 0.76 *
- Ceramide (d18:1, C24:0), treatment ratio versus control [1, 6]: 1.56 *
- Ceramide (d18:1, C24:1), treatment ratio versus control [1, 6]: 1.94 *
- Lysophosphatidylcholine (C20:4), treatment ratio versus control ([1]; male rats, day 14, high dose): 0.87 *
- Malate, treatment ratio versus control ([1]; male rats, day 14, high dose): 0.9
- Ceramide (d18:1, C24:0), treatment ratio versus control [1, 7]: 0.95
- Ceramide (d18:1, C24:1), treatment ratio versus control [1, 7]: 1.17
- Choline plasmalogen No 02, treatment ratio versus control [1, 7]: 1
- Choline plasmalogen No 03, treatment ratio versus control [1, 7]: 1.03
- Glutamate, treatment ratio versus control ([1]; male rats, day 28, high dose): 0.74 *
- Lysophosphatidylcholine (C20:4), treatment ratio versus control ([1]; male rats, day 28, high dose): 0.81 *
- Malate, treatment ratio versus control ([1]; male rats, day 28, high dose): 0.72 *
- Glutamate, treatment ratio versus control [2]: 1.04^
- Glycine, treatment ratio versus control [2]: 1.32 *
- Histidine, treatment ratio versus control [2]: 1.25 *
- Valine, treatment ratio versus control [2]: 1.29 *
Compound: Cn1c(=O)c2[nH]cnc2n(C)c1=O [Theophylline]

Reference: patent US20150011423A1, “MEANS AND METHODS FOR ASSESSING KIDNEY TOXICITY” (BASF SE, priority 2011, published 2015)
